Data: publication PMC9719519, “Non-classical ferroptosis inhibition by a small molecule targeting PHB2” (Nature Communications, 2022)

Tests used:
Test in all cases: biochemical
Set-up in all cases: Eurofins recombinant human kinase profiling, remaining kinase activity as % of control, 10 uM ATP
Conditions in all cases: ATP 10 uM; read-out: %Ctrl@10 μM
ARK5(h) = target: T1, ARK5(h) (Homo sapiens, UniProt O60285)
T1 construct: gene NUAK1
How it was run: (§1)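 Activity measured in a commercial panel of 401 recombinant human protein kinases run as a kinase profiling service.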

Abl(h) = target: T2, Abl(h) (Homo sapiens, UniProt P00519)
T2 construct: gene ABL1
T2 sequence (P00519 whole entry): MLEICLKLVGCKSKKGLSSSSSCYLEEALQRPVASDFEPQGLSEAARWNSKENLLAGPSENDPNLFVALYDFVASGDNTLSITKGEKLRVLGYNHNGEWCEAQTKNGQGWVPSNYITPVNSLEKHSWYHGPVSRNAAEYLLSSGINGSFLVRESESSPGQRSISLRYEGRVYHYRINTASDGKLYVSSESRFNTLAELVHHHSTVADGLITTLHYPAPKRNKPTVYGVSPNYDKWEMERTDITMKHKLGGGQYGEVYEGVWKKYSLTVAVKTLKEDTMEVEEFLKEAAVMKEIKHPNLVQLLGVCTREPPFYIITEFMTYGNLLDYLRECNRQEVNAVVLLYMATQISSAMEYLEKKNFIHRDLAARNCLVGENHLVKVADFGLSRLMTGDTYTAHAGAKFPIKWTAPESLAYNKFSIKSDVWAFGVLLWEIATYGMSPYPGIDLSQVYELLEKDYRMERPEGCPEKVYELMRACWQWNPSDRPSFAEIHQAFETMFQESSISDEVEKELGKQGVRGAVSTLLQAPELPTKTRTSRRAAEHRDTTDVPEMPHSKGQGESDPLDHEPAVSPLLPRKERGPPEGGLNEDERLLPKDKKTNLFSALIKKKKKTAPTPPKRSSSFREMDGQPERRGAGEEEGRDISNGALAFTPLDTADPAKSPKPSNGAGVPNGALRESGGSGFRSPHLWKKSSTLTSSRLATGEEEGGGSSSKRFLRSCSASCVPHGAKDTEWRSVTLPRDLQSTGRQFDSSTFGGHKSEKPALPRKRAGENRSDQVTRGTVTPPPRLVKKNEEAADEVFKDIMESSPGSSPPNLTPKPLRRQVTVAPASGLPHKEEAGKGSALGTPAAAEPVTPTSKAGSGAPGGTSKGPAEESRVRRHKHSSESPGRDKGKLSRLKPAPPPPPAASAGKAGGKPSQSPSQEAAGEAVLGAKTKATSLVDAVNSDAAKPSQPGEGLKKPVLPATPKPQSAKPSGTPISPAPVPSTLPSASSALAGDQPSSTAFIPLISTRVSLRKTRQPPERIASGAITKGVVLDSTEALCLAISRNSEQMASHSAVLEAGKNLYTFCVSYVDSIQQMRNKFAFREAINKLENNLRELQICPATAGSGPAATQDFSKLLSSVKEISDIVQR
How it was run: as §1

Bmx(h) = Bmx(h) (Homo sapiens, UniProt P51813)
How it was run: as §1

BrSK2(h) = BrSK2(h) (Homo sapiens, UniProt Q8IWQ3)
How it was run: as §1

CDK13/cyclinK(h) = CDK13/cyclinK(h) (Homo sapiens, UniProt Q14004)
How it was run: as §1

CDK17/cyclinY(h) = CDK17/cyclinY(h) (Homo sapiens, UniProt Q00537)
How it was run: as §1

DCAMKL2(h) = target: T3, DCAMKL2(h) (Homo sapiens, UniProt Q8N568)
T3 construct: gene DCLK2
How it was run: as §1

DMPK(h) = DMPK(h) (Homo sapiens, UniProt Q09013)
Chain of DMPK(h) (Q09013 whole entry): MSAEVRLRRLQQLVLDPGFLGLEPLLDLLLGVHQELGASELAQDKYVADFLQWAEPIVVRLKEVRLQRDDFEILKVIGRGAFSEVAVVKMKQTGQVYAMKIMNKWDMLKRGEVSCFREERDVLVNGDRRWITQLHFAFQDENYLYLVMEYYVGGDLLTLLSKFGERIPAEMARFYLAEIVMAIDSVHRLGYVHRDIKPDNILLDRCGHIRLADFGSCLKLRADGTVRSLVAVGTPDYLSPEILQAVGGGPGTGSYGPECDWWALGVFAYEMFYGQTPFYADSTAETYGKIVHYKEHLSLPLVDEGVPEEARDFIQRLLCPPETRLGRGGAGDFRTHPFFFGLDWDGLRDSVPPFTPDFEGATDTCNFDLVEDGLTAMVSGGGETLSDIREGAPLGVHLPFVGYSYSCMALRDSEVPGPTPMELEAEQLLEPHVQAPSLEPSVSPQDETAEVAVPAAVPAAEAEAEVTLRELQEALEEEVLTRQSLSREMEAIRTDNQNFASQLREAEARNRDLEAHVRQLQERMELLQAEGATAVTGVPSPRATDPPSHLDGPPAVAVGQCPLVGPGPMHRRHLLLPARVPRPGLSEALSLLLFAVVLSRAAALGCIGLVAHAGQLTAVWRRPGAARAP
How it was run: as §1

EphB1(h) = EphB1(h) (Homo sapiens, UniProt P54762)
How it was run: as §1

IRAK4(h) = IRAK4(h) (Homo sapiens, UniProt Q9NWZ3)
How it was run: as §1

Itk(h) = Itk(h) (Homo sapiens, UniProt Q08881)
How it was run: as §1

JNK1α1(h) = target: T4, JNK1α1(h) (Homo sapiens, UniProt P45983)
T4 construct: gene MAPK8; isoform alpha1
T4 sequence (P45983 whole entry, canonical isoform): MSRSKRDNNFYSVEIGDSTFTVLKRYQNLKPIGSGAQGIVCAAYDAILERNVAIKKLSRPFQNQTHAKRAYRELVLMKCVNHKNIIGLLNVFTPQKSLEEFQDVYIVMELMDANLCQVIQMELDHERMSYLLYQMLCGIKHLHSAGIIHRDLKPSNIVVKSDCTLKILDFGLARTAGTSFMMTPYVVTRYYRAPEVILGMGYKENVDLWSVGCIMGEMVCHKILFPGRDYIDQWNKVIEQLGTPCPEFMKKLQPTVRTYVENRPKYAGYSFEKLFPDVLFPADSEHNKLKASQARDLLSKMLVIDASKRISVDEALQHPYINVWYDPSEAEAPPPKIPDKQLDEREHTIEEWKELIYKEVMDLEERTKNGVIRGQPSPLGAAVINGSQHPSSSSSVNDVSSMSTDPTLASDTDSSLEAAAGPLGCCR
How it was run: as §1

MAK(h) = MAK(h) (Homo sapiens, UniProt P20794)
Chain of MAK(h) (P20794 whole entry): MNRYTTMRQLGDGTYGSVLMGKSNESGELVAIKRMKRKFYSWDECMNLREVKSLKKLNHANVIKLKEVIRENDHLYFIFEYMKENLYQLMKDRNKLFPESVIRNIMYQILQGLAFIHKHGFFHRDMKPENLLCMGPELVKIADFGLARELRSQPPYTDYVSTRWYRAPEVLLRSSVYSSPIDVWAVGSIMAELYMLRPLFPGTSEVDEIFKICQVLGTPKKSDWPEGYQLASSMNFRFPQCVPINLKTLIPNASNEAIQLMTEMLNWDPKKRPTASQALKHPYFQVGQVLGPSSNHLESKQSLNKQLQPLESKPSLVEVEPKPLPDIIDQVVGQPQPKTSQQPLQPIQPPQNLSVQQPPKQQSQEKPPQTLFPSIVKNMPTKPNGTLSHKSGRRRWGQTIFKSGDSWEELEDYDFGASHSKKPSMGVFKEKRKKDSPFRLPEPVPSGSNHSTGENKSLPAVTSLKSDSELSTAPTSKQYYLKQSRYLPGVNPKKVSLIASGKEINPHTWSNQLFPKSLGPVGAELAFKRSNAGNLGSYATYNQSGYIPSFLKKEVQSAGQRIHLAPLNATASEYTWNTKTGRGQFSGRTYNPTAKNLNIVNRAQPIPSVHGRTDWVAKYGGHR
How it was run: as §1

MLK1(h) = target: T5, MLK1(h) (Homo sapiens, UniProt P80192)
T5 construct: gene MAP3K9
How it was run: as §1

Mer(h) = target: T6, Mer(h) (Homo sapiens, UniProt Q12866)
T6 construct: gene MERTK
T6 sequence (Q12866 whole entry): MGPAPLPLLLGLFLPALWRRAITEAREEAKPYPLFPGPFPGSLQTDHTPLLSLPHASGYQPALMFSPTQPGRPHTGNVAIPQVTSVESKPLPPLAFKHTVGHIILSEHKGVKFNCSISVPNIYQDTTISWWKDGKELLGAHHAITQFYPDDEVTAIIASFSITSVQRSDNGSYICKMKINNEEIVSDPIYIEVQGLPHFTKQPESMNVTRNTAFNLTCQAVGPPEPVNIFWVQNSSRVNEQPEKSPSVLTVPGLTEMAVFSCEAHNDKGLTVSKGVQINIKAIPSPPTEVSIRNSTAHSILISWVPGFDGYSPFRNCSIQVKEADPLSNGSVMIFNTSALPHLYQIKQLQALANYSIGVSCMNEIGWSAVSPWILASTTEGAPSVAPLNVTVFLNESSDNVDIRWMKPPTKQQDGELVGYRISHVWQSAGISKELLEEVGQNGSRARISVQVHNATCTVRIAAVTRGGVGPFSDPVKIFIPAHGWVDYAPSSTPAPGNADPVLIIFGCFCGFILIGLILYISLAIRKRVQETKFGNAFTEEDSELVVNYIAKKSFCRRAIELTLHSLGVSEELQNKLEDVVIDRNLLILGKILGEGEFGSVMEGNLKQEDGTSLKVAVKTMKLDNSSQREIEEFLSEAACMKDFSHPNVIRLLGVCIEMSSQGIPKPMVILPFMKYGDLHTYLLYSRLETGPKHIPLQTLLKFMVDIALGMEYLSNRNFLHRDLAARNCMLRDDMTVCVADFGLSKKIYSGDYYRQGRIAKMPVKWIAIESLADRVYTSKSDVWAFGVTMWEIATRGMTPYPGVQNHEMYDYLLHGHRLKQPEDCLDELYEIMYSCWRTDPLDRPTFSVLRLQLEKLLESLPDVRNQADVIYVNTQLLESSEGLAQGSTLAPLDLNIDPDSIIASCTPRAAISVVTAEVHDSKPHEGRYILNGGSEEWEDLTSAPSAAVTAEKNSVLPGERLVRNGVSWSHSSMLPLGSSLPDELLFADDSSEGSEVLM
How it was run: as §1

NEK2(h) = NEK2(h) (Homo sapiens, UniProt P51955)
How it was run: as §1

PDHK4(h) = target: T7, PDHK4(h) (Homo sapiens, UniProt Q16654)
T7 construct: gene PDK4
How it was run: as §1

PKCζ(h) = target: T8, PKCζ(h) (Homo sapiens, UniProt Q05513)
T8 construct: gene PRKCZ
How it was run: as §1

SAPK2a(T106M)(h) = target: T9, SAPK2a(T106M)(h) (Homo sapiens, UniProt Q16539, T106M)
T9 construct: gene MAPK14
T9 sequence (Q16539 whole entry T106M): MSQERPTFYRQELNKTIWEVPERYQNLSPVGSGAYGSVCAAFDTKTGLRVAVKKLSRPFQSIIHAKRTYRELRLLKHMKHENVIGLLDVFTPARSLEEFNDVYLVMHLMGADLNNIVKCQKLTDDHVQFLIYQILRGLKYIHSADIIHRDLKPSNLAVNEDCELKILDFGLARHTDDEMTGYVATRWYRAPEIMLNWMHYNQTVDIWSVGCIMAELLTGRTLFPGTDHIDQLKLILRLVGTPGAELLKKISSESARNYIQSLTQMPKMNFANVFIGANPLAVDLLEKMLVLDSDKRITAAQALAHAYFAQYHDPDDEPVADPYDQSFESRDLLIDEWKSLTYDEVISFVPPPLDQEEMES
How it was run: as §1

SAPK2a(h) = target: T10, SAPK2a(h) (Homo sapiens, UniProt Q16539)
T10 construct: gene MAPK14
T10 sequence (Q16539 whole entry): as the sequence (Q16539 whole entry T106M) above, with M106T counted along it
How it was run: as §1

TLK1(h) = TLK1(h) (Homo sapiens, UniProt Q9UKI8)
How it was run: as §1

Tie2(R849W)(h) = target: T11, Tie2(R849W)(h) (Homo sapiens, UniProt Q02763, R849W)
T11 construct: gene TEK
How it was run: as §1

TrkB(h) = target: T12, TrkB(h) (Homo sapiens, UniProt Q16620)
T12 construct: gene NTRK2
T12 sequence (Q16620 whole entry): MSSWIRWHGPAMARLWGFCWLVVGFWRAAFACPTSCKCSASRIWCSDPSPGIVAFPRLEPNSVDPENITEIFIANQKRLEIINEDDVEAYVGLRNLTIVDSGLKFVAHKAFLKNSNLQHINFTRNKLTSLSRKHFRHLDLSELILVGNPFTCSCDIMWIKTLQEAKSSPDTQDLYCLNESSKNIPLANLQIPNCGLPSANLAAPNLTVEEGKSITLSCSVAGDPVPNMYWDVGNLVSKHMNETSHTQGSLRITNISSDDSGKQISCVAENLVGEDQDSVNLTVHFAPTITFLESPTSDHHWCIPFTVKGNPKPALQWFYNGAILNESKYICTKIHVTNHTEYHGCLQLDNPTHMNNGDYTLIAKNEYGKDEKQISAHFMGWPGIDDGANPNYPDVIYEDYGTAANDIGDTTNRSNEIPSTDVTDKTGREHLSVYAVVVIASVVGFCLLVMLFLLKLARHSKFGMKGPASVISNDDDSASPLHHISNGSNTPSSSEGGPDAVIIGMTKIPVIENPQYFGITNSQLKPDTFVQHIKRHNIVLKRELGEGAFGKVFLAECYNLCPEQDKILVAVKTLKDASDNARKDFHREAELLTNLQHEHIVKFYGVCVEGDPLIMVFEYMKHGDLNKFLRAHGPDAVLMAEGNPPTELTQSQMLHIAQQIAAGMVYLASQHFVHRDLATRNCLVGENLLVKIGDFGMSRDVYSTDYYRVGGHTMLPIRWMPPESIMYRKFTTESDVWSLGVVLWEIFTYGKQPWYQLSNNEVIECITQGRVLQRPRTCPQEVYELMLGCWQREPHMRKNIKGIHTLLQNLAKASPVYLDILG
How it was run: as §1

Q: Which remaining activity at 10 µM (ARK5(h)) does the source give for `C1=C(c2nc(-c3cnn(C4CCNCC4)c3)cn3cc(-c4ccccc4)nc23)CCOC1` [YL-939] here?
A: 93%

Q: What about the remaining activity at 10 µM (Abl(h)) of the same compound?
A: 102%

Q: And the remaining activity at 10 µM (Bmx(h))?
A: 87%

Q: What about the remaining activity at 10 µM (BrSK2(h)) of the same compound?
A: 101%

Q: What about the remaining activity at 10 µM (CDK13/cyclinK(h)) of the same compound?
A: 93%

Q: And the remaining activity at 10 µM (CDK17/cyclinY(h))?
A: 93%

Q: And the remaining activity at 10 µM (DCAMKL2(h))?
A: 79%

Q: And the remaining activity at 10 µM (DMPK(h))?
A: 107%

Q: And the remaining activity at 10 µM (EphB1(h))?
A: 99%

Q: What about the remaining activity at 10 µM (IRAK4(h)) of the same compound?
A: 96%

Q: And the remaining activity at 10 µM (Itk(h))?
A: 106%

Q: And the remaining activity at 10 µM (JNK1α1(h))?
A: 109%

Q: What about the remaining activity at 10 µM (MAK(h)) of the same compound?
A: 74%

Q: And the remaining activity at 10 µM (MLK1(h))?
A: 86%

Q: What about the remaining activity at 10 µM (Mer(h)) of the same compound?
A: 78%

Q: What about the remaining activity at 10 µM (NEK2(h)) of the same compound?
A: 99%

Q: What about the remaining activity at 10 µM (PDHK4(h)) of the same compound?
A: 109%

Q: What about the remaining activity at 10 µM (PKCζ(h)) of the same compound?
A: 94%

Q: What about the remaining activity at 10 µM (SAPK2a(T106M)(h)) of the same compound?
A: 105%

Q: And the remaining activity at 10 µM (SAPK2a(h))?
A: 103%

Q: And the remaining activity at 10 µM (TLK1(h))?
A: 71%

Q: What about the remaining activity at 10 µM (Tie2(R849W)(h)) of the same compound?
A: 122%

Q: And the remaining activity at 10 µM (TrkB(h))?
A: 81%
